Source: PubChem BioAssay AID652001 (The Scripps Research Institute Molecular Screening Center, 2013)
pIC50, pKi: −log10 of the molar value.

What was measured:
[1] = target: LYPLA2; assay: LYPLA2 enzyme kinetics with inhibitors – biochemical, substrate-based fluorescence, Ki, Km, Vmax, late-stage follow-up (AID 652001); conditions: recombinant LYPLA2, resorufin acetate hydrolysis fluorescence, Ki from Cheng-Prusoff
[2] = target: Acyl-protein thioesterase 2 (Homo sapiens) (UniProt O95372); assay: as above; conditions: recombinant LYPLA2, resorufin acetate hydrolysis fluorescence
Chain of Acyl-protein thioesterase 2 (Homo sapiens) (O95372 whole entry, looked up): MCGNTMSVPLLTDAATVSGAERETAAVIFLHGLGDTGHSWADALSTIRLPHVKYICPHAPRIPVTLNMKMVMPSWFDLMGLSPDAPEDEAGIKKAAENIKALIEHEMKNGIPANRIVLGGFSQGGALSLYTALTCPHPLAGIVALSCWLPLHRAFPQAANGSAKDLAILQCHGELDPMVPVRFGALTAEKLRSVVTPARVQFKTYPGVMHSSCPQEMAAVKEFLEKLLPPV

pKi [1]: 6.64
pIC50 [2]: 6.29
Structure (SMILES): COc1ccc(N2CCN(C(=O)c3cc4c(s3)-c3ccccc3S(=O)(=O)C4)CC2)cc1
